Data: patent US20020026053A1, “Novel 3-(substituted) -2- indolinones compounds and use thereof as inhibitors of protein kinase activity” (priority 1997, published 2002)

Target: T1, Met receptor (EGFR/Met chimeric cells, EMR) (Homo sapiens, UniProt P08581)
T1 construct: expressed in transfected cells; the other entry of the earlier key: EGFR (P00533, Epidermal growth factor receptor)
Assay: Met Autophosphorylation Assay
Format: biochemical
Details: protocol P.130
In short: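 Transiently transfected EGFR/Met chimeric (EMR) cells were lysed in HNTG with 1 mM PMSF. Met was captured on plates coated with goat anti-rabbit IgG, then rabbit anti-Met (C-28), using 90 μg lysate/100 μl for 60 min at room temperature. Phosphotyrosine was read by ELISA.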

T1 sequence (P08581 with tags, fused parts or gaps): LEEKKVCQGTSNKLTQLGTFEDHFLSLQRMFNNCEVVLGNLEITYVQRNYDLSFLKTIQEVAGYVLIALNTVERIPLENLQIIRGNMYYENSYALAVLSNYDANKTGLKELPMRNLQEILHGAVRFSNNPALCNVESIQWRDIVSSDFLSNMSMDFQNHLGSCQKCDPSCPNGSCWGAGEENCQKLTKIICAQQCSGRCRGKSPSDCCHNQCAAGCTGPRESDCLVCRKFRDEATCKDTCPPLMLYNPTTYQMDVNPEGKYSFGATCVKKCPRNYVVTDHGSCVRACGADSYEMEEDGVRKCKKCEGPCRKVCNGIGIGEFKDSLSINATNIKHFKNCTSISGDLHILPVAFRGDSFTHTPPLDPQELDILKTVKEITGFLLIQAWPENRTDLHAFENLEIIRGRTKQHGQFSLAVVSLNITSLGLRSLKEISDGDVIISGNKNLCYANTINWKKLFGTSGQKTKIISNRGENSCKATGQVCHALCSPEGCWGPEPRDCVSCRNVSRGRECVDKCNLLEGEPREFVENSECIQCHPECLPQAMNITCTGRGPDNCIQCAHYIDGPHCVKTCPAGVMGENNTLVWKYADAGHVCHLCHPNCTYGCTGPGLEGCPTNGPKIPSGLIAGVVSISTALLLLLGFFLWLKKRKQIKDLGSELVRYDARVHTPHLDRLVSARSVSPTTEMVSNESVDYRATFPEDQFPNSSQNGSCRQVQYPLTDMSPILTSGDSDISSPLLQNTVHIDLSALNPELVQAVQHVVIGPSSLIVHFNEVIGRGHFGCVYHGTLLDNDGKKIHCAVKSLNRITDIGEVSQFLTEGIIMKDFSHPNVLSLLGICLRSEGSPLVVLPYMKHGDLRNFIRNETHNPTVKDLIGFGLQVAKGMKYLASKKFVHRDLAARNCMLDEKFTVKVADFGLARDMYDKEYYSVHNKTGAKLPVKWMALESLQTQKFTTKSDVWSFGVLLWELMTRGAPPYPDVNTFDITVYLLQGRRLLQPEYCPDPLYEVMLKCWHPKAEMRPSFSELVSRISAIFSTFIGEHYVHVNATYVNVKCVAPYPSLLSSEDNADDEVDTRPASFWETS

| SMILES | Met Kinase % Inhibition (P.130) [%] |
| --- | --- |
| Cc1c(Br)cc(Br)c2c1C(=Cc1cc(F)ccc1F)C(=O)N2 [10737/H04] | 63.0 |
| Cc1c(Br)cc(Br)c2c1C(=Cc1cccc(F)c1F)C(=O)N2 [10737/H05] | 76.5 |
| COc1ccc(C=C2C(=O)Nc3c(Br)cc(Br)c(C)c32)cc1F [10737/H06] | 28.7 |
